Source: patent US6479533B1, “Methods and compositions for the protection of mitochondria” (priority 1997, dated 2002)

What was measured:
Format in all cases: cell-based
[1] = tested on: mitochondria in mouse keratinocytes; assay: MTT assay after UV-B irradiation
Description: Mouse keratinocytes were pretreated with different concentrations of L-ergothioneine (unencapsulated) and then exposed to ultraviolet B radiation (UV-B), the shorter wavelength range of UV light present in sunlight which is responsible for significant photodamage to the skin. The light was generated by a FS20 sunlamp filtered with 2 sheets of Kodacel to eliminate light having a wavelength less than 280 nm.
(§1) This assay measures the specific activity of mitochondria to cleave the tetrazolium ring of the soluble dye MTT [3-(4,5-dimethylthiazol-2-yl)-2,5-diphenyl tetrazolium bromide] to form the insoluble blue formazan form. Living mitochondria metabolize MTT and make the blue formazan; dead mitochondria immediately stop forming blue formazan. In the MTT assay, mammalian cells are pretreated with L-ergothioneine and then treated with the mitochondrial damaging agent, in this example UV-B. MTT is then added and the formation of the blue dye is measured spectrophotometrically.
Table I provides the percent optical density of the formazan blue present relative to unexposed (control) mitochondria in cells for various UV-B levels, expressed as joules per square meter, and L-ergothioneine concentrations.
Mouse keratinocytes were pretreated with L-ergothioneine, both unencapsulated and encapsulated in liposomes (prepared as described below), at a final concentration of 12.5 μM. A control group was not treated with L-ergothioneine. The mouse keratinocytes were then exposed to UV-B as in Example I.
The L-ergothioneine was encapsulated into liposomes composed of phosphatidyl choline, phosphatidyl ethanolamine, oleic acid and cholesteryl hemisuccinate in a ratio of 2:2:1:5. To calculate the concentration of entrapped L-ergothioneine, the liposomes are extracted with chloroform, and the OD258 is measured in the aqueous layer. The concentration of L-ergothioneine is calculated using the ε258 of L-ergothioneine of 14,500. The final concentration of L-ergothioneine in the purified liposome was about 1.1 mM. […] Unencapsulated L-ergothioneine was adjusted to the same concentration by dilution.
The effect of the UV-B on the pretreated and untreated mitochondria was determined by the MTT assay as in Example 1.
Table 3 provides the percent optical density of the formazan blue present in each case relative to unexposed (control) mitochondria in cells for various UV-B levels.

[2] = tested on: mitochondrial membranes in mouse keratinocytes; assay: JC-1 assay (fluorescence microscopy) after alloxan
Description: Mouse keratinocytes were pretreated with L-ergothioneine (unencapsulated) at 1 mM and then treated with 8 mM alloxan. One day after treatment with L-ergothioneine, the cells were treated for 10 minutes with JC-I and the cells examined by fluorescence microscopy.
The JC-1 assay makes use of the fluorescent dye JC-1 (5,5′, 6,6′-tetrachloro-1, 1′, 3,3′-tetrathylbenzimidazolecarbocyanine iodide) (Molecular Probes Inc., Eugene, OR). This dye immediately and specifically intercalates into mitochondrial membranes. In living, charged membranes the JC-1 dye is maintained in the membrane as a […], and fluoresces green. When the mitochondrial membrane is damaged, aggregation of the JC-1 dye into J-1 aggregates occurs and the fluorescence changes to orange. Orange coloration is then characteristic of mitochondrial membrane damage.

[3] = tested on: mitochondria in mouse keratinocytes; assay: MTT assay after alloxan exposure
Description: as §1
Mouse keratinocytes were pretreated with various concentrations of L-ergothioneine (unencapsulated) and then exposed to alloxan at various concentrations.
The effect of alloxan on the pretreated mitochondria was determined by the MTT assay as in Example 1.
Table 2 provides the percent optical densities of the formazan blue present relative to unexposed (control) mitochondria in cells for various alloxan concentrations, and L-ergothioneine concentrations.

C[N+](C)(C)[C@@H](Cc1c[nH]c(=S)[nH]1)C(=O)[O-] [L-ergothioneine]
protection of mitochondria from UV-B damage ([1]; 12.5 μM, UV-B 100 and 500 J/m^2): significant but not complete protection
percent optical density of formazan blue relative to unexposed (control) mitochondria ([1]; 0.1 mM L-ergothioneine, UV-B 0 J/m^2): 100.0%
percent optical density of formazan blue relative to unexposed (control) mitochondria ([1]; 0.1 mM L-ergothioneine, UV-B 100 J/m^2): 95.7%
percent optical density of formazan blue relative to unexposed (control) mitochondria ([1]; 0.1 mM L-ergothioneine, UV-B 200 J/m^2): 97.0%
percent optical density of formazan blue relative to unexposed (control) mitochondria ([1]; 0.1 mM L-ergothioneine, UV-B 500 J/m^2): 91.0%
percent optical density of formazan blue relative to unexposed (control) mitochondria ([1]; 0.5 mM L-ergothioneine, UV-B 100 J/m^2): 97.2%
percent optical density of formazan blue relative to unexposed (control) mitochondria ([1]; 0.5 mM L-ergothioneine, UV-B 200 J/m^2): 99.4%
percent optical density of formazan blue relative to unexposed (control) mitochondria ([1]; 0.5 mM L-ergothioneine, UV-B 500 J/m^2): 90.8%
percent optical density of formazan blue relative to unexposed (control) mitochondria ([1]; 1 mM L-ergothioneine, UV-B 0 J/m^2): 100.0%
percent optical density of formazan blue relative to unexposed (control) mitochondria ([1]; 1 mM L-ergothioneine, UV-B 100 J/m^2): 97.1%
percent optical density of formazan blue relative to unexposed (control) mitochondria ([1]; 1 mM L-ergothioneine, UV-B 200 J/m^2): 103.9%
percent optical density of formazan blue relative to unexposed (control) mitochondria ([1]; 1 mM L-ergothioneine, UV-B 500 J/m^2): 96.0%
mitochondrial viability ([1]; UV-B 100 and 200 J/m^2, all three levels of L-ergothioneine (0.1, 0.5, 1 mM)): greater than 95%
protection of mitochondria ([1]; highest UV-B dose (500 J/m^2)): still protected the mitochondria
percent optical density of formazan blue relative to unexposed (control) mitochondria ([1]; unencapsulated, 12.5 μM, UV-B 0 J/m^2): 100.0%
percent optical density of formazan blue relative to unexposed (control) mitochondria ([1]; unencapsulated, 12.5 μM, UV-B 100 J/m^2): 89.9%
percent optical density of formazan blue relative to unexposed (control) mitochondria ([1]; unencapsulated, 12.5 μM, UV-B 500 J/m^2): 89.9%
concentration at which active (protection from UV-B) ([1]; unencapsulated, UV-B 100 and 500 J/m^2): ≤ 12.5 µM
JC-1 fluorescence colour (orange = mitochondrial membrane damage) ([2]; 1 mM L-ergothioneine alone, no alloxan): green fluorescence
JC-1 fluorescence colour (orange = mitochondrial membrane damage) ([2]; 1 mM L-ergothioneine pretreatment, then 8 mM alloxan): much less orange than cells treated with alloxani alone
percent optical density of formazan blue relative to unexposed (control) mitochondria ([3]; 0.1 mM L-ergothioneine, alloxan 0 mM): 100.0%
percent optical density of formazan blue relative to unexposed (control) mitochondria ([3]; 0.1 mM L-ergothioneine, alloxan 0.625 mM): 86.3%
percent optical density of formazan blue relative to unexposed (control) mitochondria ([3]; 0.1 mM L-ergothioneine, alloxan 1.25 mM): 80.8%
percent optical density of formazan blue relative to unexposed (control) mitochondria ([3]; 0.1 mM L-ergothioneine, alloxan 2.5 mM): 81.1%
percent optical density of formazan blue relative to unexposed (control) mitochondria ([3]; 0.1 mM L-ergothioneine, alloxan 5 mM): 73.3%
percent optical density of formazan blue relative to unexposed (control) mitochondria ([3]; 0.1 mM L-ergothioneine, alloxan 10 mM): 74.9%
percent optical density of formazan blue relative to unexposed (control) mitochondria ([3]; 0.1 mM L-ergothioneine, alloxan 20 mM): 79.1%
percent optical density of formazan blue relative to unexposed (control) mitochondria ([3]; 0.5 mM L-ergothioneine, alloxan 0 mM): 100.0%
percent optical density of formazan blue relative to unexposed (control) mitochondria ([3]; 0.5 mM L-ergothioneine, alloxan 0.625 mM): 88.3%
percent optical density of formazan blue relative to unexposed (control) mitochondria ([3]; 0.5 mM L-ergothioneine, alloxan 1.25 mM): 81.0%
percent optical density of formazan blue relative to unexposed (control) mitochondria ([3]; 0.5 mM L-ergothioneine, alloxan 2.5 mM): 81.0%
percent optical density of formazan blue relative to unexposed (control) mitochondria ([3]; 0.5 mM L-ergothioneine, alloxan 5 mM): 73.3%
percent optical density of formazan blue relative to unexposed (control) mitochondria ([3]; 0.5 mM L-ergothioneine, alloxan 10 mM): 74.1%
percent optical density of formazan blue relative to unexposed (control) mitochondria ([3]; 0.5 mM L-ergothioneine, alloxan 20 mM): 78.4%
percent optical density of formazan blue relative to unexposed (control) mitochondria ([3]; 0.5 mM L-ergothioneine, alloxan 40 mM): 72.3%
percent optical density of formazan blue relative to unexposed (control) mitochondria ([3]; 1 mM L-ergothioneine, alloxan 0 mM): 100.0%
percent optical density of formazan blue relative to unexposed (control) mitochondria ([3]; 1 mM L-ergothioneine, alloxan 0.625 mM): 91.2%
percent optical density of formazan blue relative to unexposed (control) mitochondria ([3]; 1 mM L-ergothioneine, alloxan 1.25 mM): 86.5%
percent optical density of formazan blue relative to unexposed (control) mitochondria ([3]; 1 mM L-ergothioneine, alloxan 2.5 mM): 82.9%
percent optical density of formazan blue relative to unexposed (control) mitochondria ([3]; 1 mM L-ergothioneine, alloxan 10 mM): 68.5%
percent optical density of formazan blue relative to unexposed (control) mitochondria ([3]; 1 mM L-ergothioneine, alloxan 20 mM): 72.7%
percent optical density of formazan blue relative to unexposed (control) mitochondria ([3]; 1 mM L-ergothioneine, alloxan 40 mM): 66.6%
protection from oxidative damage by alloxan ([3]; dose-responsive portion of the curve (alloxan up to 5 mM)): afforded protection from oxidative damage
